# Results from US20250360177A1, “FERMENTATION PRODUCT FOR THE TREATMENT OF INFLAMMATORY DISEASES” (ALFASIGMA S.P.A., priority 2022, published 2025).
# Tests used:
# [1] = tested on: IL-10; assay: IL-10 ELISA in LPS-stimulated RAW264.7 macrophages; type: cell-based; details: LPS 24 hours
# Description: Each solution was centrifuged for 20 min at 2500 rpm, the insoluble residues discarded and the supernatant filtered on 0.22-μm PES filters. […] The cells were divided into 5 groups and each group was treated for 2 hours with […] of each of the Solutions obtained from the plant extracts (Sol. Ex1-Ex5). […] At the end of incubation, the supernatants were collected and analyzed by ELISA assay (Invitrogen kit) to detect the amount of IL-10.
# [2] = tested on: TNBS-induced colitis mice; assay: TNBS-induced colitis in mice, comparison to VSL #3 and E. coli Nissle (Example 12); type: in vivo, C57BL/6 mice; details: TNBS 2 mg/mouse ir; 100 mg per kg mouse os, 4 days
# Description: C57BL/6 Male mice aged 7-8 weeks (ENVIGO, Italy) were housed under standard laboratory conditions: light/dark cycles (12/12 hr), ambient temperature 20±2° C., 55% relative air humidity and food (Mucedola RF18) and water ad libitum.
# Colitis was induced in the mice as previously described, using TNBS (Yang et al., Scientific Reports, 2016 6:29716).
# After 3 h of colitis induction, each group of mice was orally administered with the corresponding treatment for 4 days. During the 4-day trial, the mice were routinely inspected for their body mass, and diarrhea. All mice were sacrificed by cervical dislocation for sample collection at the end of day 4.
# [3] = tested on: IL-1beta mRNA; assay: IL-1beta mRNA transcription in LPS-stimulated RAW264.7 macrophages (Real-Time PCR); type: cell-based; details: 0.1 mM, LPS 24 hours
# Description: The anti-inflammatory activity of the fermentation product in lyophilic form of L. brevis DSM 33682 obtained in the presence of Phaseolus radiatus sprout extract (Lio-Prob1) according to Example 5, and the product obtained without Phaseolus radiatus sprout extract (Lio-Prob2) according to Example 6, were analyzed by means of determination of the amount of IL-1beta mRNA.
# 3×10^5 Cells/well of RAW264.7 macrophages (ATCC) were seeded on a 24-well plate.
# Ten μl of lipopolysaccharide (LPS) from Sigma-Aldrich n.2630 (10 μg/mL) was added to each well and incubated at 37° C. in a 5% CO2 incubator for 24 hours.
# At the end of incubation, macrophage RNA was extracted and analysed by Real-Time PCR to detect the gene transcription level of the proinflammatory cytokine IL-1beta, calculated as the mean value for the treated groups compared with macrophages treated with LPS alone. In particular, total RNA was isolated from each sample using the mini RNeasy kit (QiaGen GmbH, Hilden, Germany), and 1ug of total RNA was reverse transcribed by IScript™ cDNA Synthesis Kit (BioRad, Hercules, CA, USA). Real-time PCR was carried out by a BioRad CFX96 Touch™ Real-Time PCR Detection System using SsoAdvanced Universal SYBR Green super Mix (BioRad). The expression level of each mRNA was assessed using the ΔΔCT method, and Gapdh was used as housekeeping gene for normalization. The following primers were used.
# [4] = tested on: TNBS-induced ulcerative colitis mouse model; assay: TNBS-induced ulcerative colitis in mice, plant extract solutions; type: in vivo, C57BL/6 mice; details: TNBS 2 mg/mouse i.r.; 100 mg/kg gavage; day 3
# Description: Ulcerative colitis was induced in a mouse model by administration of 2,4,6-trinitrobenzenesulfonic acid (TNBS) (Yang et al., Scientific Reports, 2016 6: 29716). Male C57BL/6 mice aged 6-8 weeks were divided into groups of 8 mice each. Solutions obtained from the plant extracts (Sol. […] Ex-1 (Scutellaria baicalensis Georgi)/600μL/mouse per gavage • Group E: TNBS 2 mg/mouse in 100 μL i.r.+Sol. Ex-2 (Phaseolus radiatus)/[…]/mouse per gavage • Group F: TNBS 2 mg/mouse in 100 μL i.r.+Sol. Ex-3 (Curcuma longa)/600 μL/mouse per gavage • Group G: TNBS 2 mg/mouse in 100 μL i.r.+Sol. Ex-5 (Broccoli sprouts)/600 μL/mouse per gavage. Mice were sacrificed 6 h after the last administration by cervical dislocation.
# [5] = tested on: TNF-α, IL-1β and IL-10 gene expression; assay: Relative quantitative real-time PCR of colonic cells of TNBS-induced colitis mice; type: in vivo, C57BL/6 mice; details: Lio-Prob1 12 mg/kg or mesalazine 100 mg/kg orally 4 days
# Description: RNA of colonic cells of C57BL/6 male mice treated according to Example 8 was isolated with Trizol (Life-technologies). […] BIO 65053). Real-time PCR was performed using SYBR green Master Mix (#1725150, Biorad). GAPDH was used as internal control. The relative transcription mRNA level was calculated.
# [6] = tested on: TNBS-induced ulcerative colitis mouse model; assay: TNBS-induced ulcerative colitis in mice, DAI score and colon length (Example 6); type: in vivo, C57BL/6 mice; details: TNBS 2 mg/mouse i.r.; 100 mg/kg per gavage
# Description: The efficacy of fermentation products of L. brevis DSM 33682 obtained in the presence of Phaseolus radiatus sprout extract (Lio-Prob1) or absence of the extract (Lio-Prob2) was determined by measurement of DAI score and colonic length. Male C57BL/6 mice (Envigo) aged 6-8 weeks (8 mice/group), ulcerative colitis was induced with 2,4,6-trinitrobenzenesulfonic acid (TNBS) (Yang et al., Scientific Reports, 2016 6:29716). […] Mice were sacrificed by cervical dislocation 6 h after the last administration. The disease activity index, expressed by DAI score, of C57BL/6 mice was measured according to the method reported by Yang et al., Scientific Reports, 2016 6:29716.
smiles,measurement,setting,value
CC(=O)O [Acetate],% IL-10 (vs LPS) ± SD,[1]; 5 mM,199 ± 14%
CCCC(=O)O [Butyrate],% IL-10 (vs LPS) ± SD,[1]; 0.62 mM,268 ± 71%
Nc1ccc(O)c(C(=O)O)c1 [Mesalazine],BWL body weight loss % max,[2],4%
same,mRNA IL-1beta transcription inhibition compared to LPS treatment,[3],59%
same,colon length (mm) ± SE,[4],68 ± 1.9 mm
same,"expression levels of pro-inflammatory genes, including TNF-α and IL-1β (in words)",[5]; colon of TNBS-induced acute colitis mice,reduced the expression levels of pro-inflammatory genes
same,expression of IL-10 (in words),[5]; colon of TNBS-induced colitis mice,increased
same,% IL-10 (vs LPS) ± SD,[1]; 0.1 mM,216 ± 55%
same,% IL-10 (vs LPS) ± SD,[1]; 0.2 mM,269 ± 18%
same,DAI score ± SE,[6],1.1 ± 0.5
same,colon length (mm) ± SE,[6],66.6 ± 0.5 mm
CCC(=O)O [Propionate],% IL-10 (vs LPS) ± SD,[1]; 10 mM,135 ± 2%
